Data taken from patent US4345938A, “Herbicidal 2-haloacetanilides” (Monsanto Company, priority 1980, dated 1982).
Like-named read-outs stand apart in the source and are kept apart here.

Columns and labels:
Assay type in all cases: in vivo
Cyperus serotinus = assay: Greenhouse transplant rice test, CS; details: about 3 WAT, read-out: Percent Inhibition, CS; for inhibition at 280 g/ha: 0.28 Kg/Ha; for inhibition at 560 g/ha: 0.56 Kg/Ha; for inhibition at 1120 g/ha: 1.12 Kg/Ha; for inhibition at 2240 g/ha: 2.24 Kg/Ha
Excerpt: The test procedure used in this greenhouse test is as follows: Ray silt loam top soil containing about 0.05% by weight of krillium and sifted through a […] screen is fumigated about 5-10 days prior to use. Pots are then filled with said Ray silt loam soil to a level to allow for a 1 in. (2.54 cm) flooding depth. Rice plants (Bluebelle) of 2 to 3 weeks age are transplanted to the pots and bulbs or seeds of the test weeds also planted in the pots. The pots are then flooded and the test chemical applied to the surface of the flood water. The flood water is reduced to allow for germination of the Echinochloa crus-galli (barnyardgrass) seed and subsequently reflooded and maintained in that condition. Observations of percent inhibition using a scale of 0-100% are made about 3 weeks after transplant (WAT).
The test data in Table III for all compounds was obtained under identical test conditions. The weeds used in the tests herein have the following abbreviations in the tables: Echinochloa crus-galli (EC), Monochloria vaginalis (MV), Cyperus Serotinus (CS), Eleocharis Kuroguwai (EK) and Sagittaria trifolia (ST).

Rice [1] = assay: Field transplant rice test, applied 0 DAT, rice injury; details: for inhibition at 375 g/ha / inhibition at 750 g/ha / inhibition at 1500 g/ha / inhibition at 3000 g/ha: Oryza sativa, 0 h, read-out: Percent Inhibition, Rice; for inhibition at 375 g/ha: 0.375 Kg/Ha; for inhibition at 750 g/ha: 0.75 Kg/Ha; for inhibition at 1500 g/ha: 1.5 Kg/Ha; for inhibition at 3000 g/ha: 3.0 Kg/Ha
Outline: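 Field test in transplant rice with herbicide applied as granules at transplanting (0 DAT), at rates from 3.0 kg/ha down to 0.375 kg/ha. Injury was rated weekly from 2 to 6 weeks after transplant. Granules held 2.5% or 5.0% herbicide by weight, depending on compound.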

Rice [2] = assay: Field transplant rice test, applied 9 DAT, rice injury; details: for inhibition at 375 g/ha / inhibition at 750 g/ha / inhibition at 1500 g/ha / inhibition at 3000 g/ha: Oryza sativa, 216 h, read-out: Percent Inhibition, Rice; for inhibition at 375 g/ha: 0.375 Kg/Ha; for inhibition at 750 g/ha: 0.75 Kg/Ha; for inhibition at 1500 g/ha: 1.5 Kg/Ha; for inhibition at 3000 g/ha: 3.0 Kg/Ha
Outline: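 Field transplant rice; herbicides applied as granules (2.5% by weight active, 5.0% for one prior-art comparator) at 9 days after transplant. Rates from 3.0 kg/ha (2.67 lb/A) down to 0.375 kg/ha (0.34 lb/A). Crop injury observed weekly from 3 to 7 weeks after transplant.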

Echinochloa crus-galli = assay: Field transplant rice test, applied 9 DAT, EC; details: Echinochloa crus-galli, 216 h, read-out: Percent Inhibition, EC; for inhibition at 375 g/ha: 0.375 Kg/Ha; for inhibition at 750 g/ha: 0.75 Kg/Ha; for inhibition at 1500 g/ha: 1.5 Kg/Ha; for inhibition at 3000 g/ha: 3.0 Kg/Ha
Outline: (§1)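 Field test in transplanted rice, herbicides applied as granules (2.5% or 5.0% w/w active) 9 days after transplant at 3.0 down to 0.375 kg/ha. Weed control observed weekly from 3 to 7 weeks after transplant.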

Monochoria vaginalis = assay: Field transplant rice test, applied 9 DAT, MV; details: for inhibition at 375 g/ha / inhibition at 750 g/ha / inhibition at 1500 g/ha / inhibition at 3000 g/ha: Pontederia vaginalis, 216 h, read-out: Percent Inhibition, MV; for inhibition at 375 g/ha: 0.375 Kg/Ha; for inhibition at 750 g/ha: 0.75 Kg/Ha; for inhibition at 1500 g/ha: 1.5 Kg/Ha; for inhibition at 3000 g/ha: 3.0 Kg/Ha
Outline: as §1

Eleocharis kuroguwai = assay: Field transplant rice test, applied 9 DAT, EK; details: for inhibition at 375 g/ha / inhibition at 750 g/ha / inhibition at 1500 g/ha / inhibition at 3000 g/ha: Eleocharis kuroguwai, 216 h, read-out: Percent Inhibition, EK; for inhibition at 375 g/ha: 0.375 Kg/Ha; for inhibition at 750 g/ha: 0.75 Kg/Ha; for inhibition at 1500 g/ha: 1.5 Kg/Ha; for inhibition at 3000 g/ha: 3.0 Kg/Ha
Outline: as §1

`CCCCOc1cccc(CC)c1N(C)C(=O)CCl` [Example 1, N-methyl-2'-n-butoxy-6'-ethyl-2-chloroacetanilide] showed an inhibition at 280 g/ha (Cyperus serotinus) of 85%, an inhibition at 560 g/ha (Cyperus serotinus) of 100% and an inhibition at 1120 g/ha (Cyperus serotinus) of 100%. The inhibition at 2240 g/ha (Cyperus serotinus) was 100%, the safety in rice (Rice [1]) was “safe in rice at rates above 1.5 kg/ha and slightly less than 3.0 kg/ha” and the inhibition at 375 g/ha (Rice [1]; 2 WAT) was 10%. The inhibition at 375 g/ha (Rice [1]; 4 WAT) was 7%, the inhibition at 375 g/ha (Rice [1]; 6 WAT) was 5% and the inhibition at 750 g/ha (Rice [1]; 2 WAT) was 3%. It also gave an inhibition at 750 g/ha (Rice [1]; 4 WAT) of 0%, an inhibition at 750 g/ha (Rice [1]; 6 WAT) of 2% and an inhibition at 1500 g/ha (Rice [1]; 2 WAT) of 5%. It also gave an inhibition at 1500 g/ha (Rice [1]; 4 WAT) of 0%, an inhibition at 1500 g/ha (Rice [1]; 6 WAT) of 2% and an inhibition at 3000 g/ha (Rice [1]; 2 WAT) of 25%. It also gave an inhibition at 3000 g/ha (Rice [1]; 4 WAT) of 22%, an inhibition at 3000 g/ha (Rice [1]; 6 WAT) of 23% and an inhibition at 375 g/ha (Rice [2]; 3 WAT) of 13%. The inhibition at 375 g/ha (Rice [2]; 5 WAT) was 7%, the inhibition at 375 g/ha (Rice [2]; 7 WAT) was 7% and the inhibition at 750 g/ha (Rice [2]; 3 WAT) was 7%. The inhibition at 750 g/ha (Rice [2]; 5 WAT) was 2%, the inhibition at 750 g/ha (Rice [2]; 7 WAT) was 0% and the inhibition at 1500 g/ha (Rice [2]; 3 WAT) was 10%. The inhibition at 1500 g/ha (Rice [2]; 5 WAT) was 7%, the inhibition at 1500 g/ha (Rice [2]; 7 WAT) was 5% and the inhibition at 3000 g/ha (Rice [2]; 3 WAT) was 15%. The inhibition at 3000 g/ha (Rice [2]; 5 WAT) was 15%, the inhibition at 3000 g/ha (Rice [2]; 7 WAT) was 10% and the “rate at which safety in rice is maintained” value (Rice [2]; maximum test rate) was ≥ 3.0 kg/ha. It also gave an inhibition at 375 g/ha (Echinochloa crus-galli; 3 WAT) of 90%, an inhibition at 375 g/ha (Echinochloa crus-galli; 5 WAT) of 88% and an inhibition at 375 g/ha (Echinochloa crus-galli; 7 WAT) of 78%. It also gave an inhibition at 750 g/ha (Echinochloa crus-galli; 3 WAT) of 100%, an inhibition at 750 g/ha (Echinochloa crus-galli; 5 WAT) of 100% and an inhibition at 750 g/ha (Echinochloa crus-galli; 7 WAT) of 100%. The inhibition at 1500 g/ha (Echinochloa crus-galli; 3 WAT) was 100%, the inhibition at 1500 g/ha (Echinochloa crus-galli; 5 WAT) was 98% and the inhibition at 1500 g/ha (Echinochloa crus-galli; 7 WAT) was 100%. The inhibition at 3000 g/ha (Echinochloa crus-galli; 3 WAT) was 100%, the inhibition at 3000 g/ha (Echinochloa crus-galli; 5 WAT) was 100% and the inhibition at 3000 g/ha (Echinochloa crus-galli; 7 WAT) was 100%. For the same compound, the inhibition at 375 g/ha (Monochoria vaginalis; 3 WAT) was 100%, the inhibition at 375 g/ha (Monochoria vaginalis; 5 WAT) was 100% and the inhibition at 375 g/ha (Monochoria vaginalis; 7 WAT) was 100%. For the same compound, the inhibition at 750 g/ha (Monochoria vaginalis; 3 WAT) was 100%, the inhibition at 750 g/ha (Monochoria vaginalis; 5 WAT) was 100% and the inhibition at 750 g/ha (Monochoria vaginalis; 7 WAT) was 100%. For the same compound, the inhibition at 1500 g/ha (Monochoria vaginalis; 3 WAT) was 100%, the inhibition at 1500 g/ha (Monochoria vaginalis; 5 WAT) was 100% and the inhibition at 1500 g/ha (Monochoria vaginalis; 7 WAT) was 100%. For the same compound, the inhibition at 3000 g/ha (Monochoria vaginalis; 3 WAT) was 100%, the inhibition at 3000 g/ha (Monochoria vaginalis; 5 WAT) was 100% and the inhibition at 3000 g/ha (Monochoria vaginalis; 7 WAT) was 100%. For the same compound, the “selectivity factor (GR15/GR85), MV in transplant rice” value (Monochoria vaginalis; between 3 WAT and 7 WAT) was 16, the inhibition at 375 g/ha (Eleocharis kuroguwai; 3 WAT) was 80% and the inhibition at 375 g/ha (Eleocharis kuroguwai; 5 WAT) was 52%. The inhibition at 375 g/ha (Eleocharis kuroguwai; 7 WAT) was 15%, the inhibition at 750 g/ha (Eleocharis kuroguwai; 3 WAT) was 83% and the inhibition at 750 g/ha (Eleocharis kuroguwai; 5 WAT) was 68%. It also gave an inhibition at 750 g/ha (Eleocharis kuroguwai; 7 WAT) of 13%, an inhibition at 1500 g/ha (Eleocharis kuroguwai; 3 WAT) of 82% and an inhibition at 1500 g/ha (Eleocharis kuroguwai; 5 WAT) of 65%. It also gave an inhibition at 1500 g/ha (Eleocharis kuroguwai; 7 WAT) of 0%, an inhibition at 3000 g/ha (Eleocharis kuroguwai; 3 WAT) of 93% and an inhibition at 3000 g/ha (Eleocharis kuroguwai; 5 WAT) of 93%. For the same compound, the inhibition at 3000 g/ha (Eleocharis kuroguwai; 7 WAT) was 67% and the “selectivity factor (GR15/GR85), EK in transplant rice” value (Eleocharis kuroguwai; up to 5 WAT) was “about 2”.

`CCCCOc1cccc(CC)c1N(CC)C(=O)CCl` [Example 2, N-ethyl-2'-n-butoxy-6'-ethyl-2-chloroacetanilide] showed an inhibition at 280 g/ha (Cyperus serotinus) of 100%, an inhibition at 560 g/ha (Cyperus serotinus) of 100% and an inhibition at 1120 g/ha (Cyperus serotinus) of 100%. The inhibition at 2240 g/ha (Cyperus serotinus) was 100%.
